Reference: US9957264B2 (Merck Sharp & Dohme Corp., priority 2013, dated 2018)

Columns and labels:
[1] = biological target: JAK1 (recombinant purified GST-tagged catalytic domain) (Homo sapiens (Human), UniProt P23458); experiment: Jak Biochemical HTRF Assay (JAK1); conditions: [ATP] 31.8 μM
How it was run: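 Kinase reaction with biotinylated peptide substrate was started by ATP addition and run 120 min at room temperature, then quenched with EDTA stop buffer containing streptavidin-Dylight 650 and Eu-pY20 antibody. HTRF read 60 min later (665/615 nm ratio); percent inhibition vs log concentration fit to 4-parameter curve for IC50.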

[2] = biological target: JAK2 (recombinant purified GST-tagged catalytic domain) (Homo sapiens (Human), UniProt O60674); experiment: Jak Biochemical HTRF Assay (JAK2); conditions: [ATP] 8.5 μM
Sequence of JAK2 (recombinant purified GST-tagged catalytic domain) (O60674 849-1124): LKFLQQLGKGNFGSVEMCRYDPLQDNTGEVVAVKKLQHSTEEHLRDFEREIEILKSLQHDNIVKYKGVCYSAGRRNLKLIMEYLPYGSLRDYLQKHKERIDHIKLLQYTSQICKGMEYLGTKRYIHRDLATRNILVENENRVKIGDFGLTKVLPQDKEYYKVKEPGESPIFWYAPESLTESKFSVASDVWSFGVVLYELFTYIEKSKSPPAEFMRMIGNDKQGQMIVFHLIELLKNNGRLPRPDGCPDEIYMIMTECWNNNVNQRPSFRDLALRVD

Sequence of JAK1 (recombinant purified GST-tagged catalytic domain) (P23458 875-1153): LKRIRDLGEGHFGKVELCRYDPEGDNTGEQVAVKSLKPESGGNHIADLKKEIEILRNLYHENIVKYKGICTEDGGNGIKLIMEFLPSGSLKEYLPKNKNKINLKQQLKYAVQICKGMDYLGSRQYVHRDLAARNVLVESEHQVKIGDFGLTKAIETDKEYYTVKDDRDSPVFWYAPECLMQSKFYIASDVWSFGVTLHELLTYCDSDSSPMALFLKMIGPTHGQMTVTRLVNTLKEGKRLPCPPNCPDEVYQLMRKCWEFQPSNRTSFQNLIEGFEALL

SMILES	IC50 [1] [nM]	IC50 [2] [nM]
CN(C)S(=O)(=O)c1cccc(Nc2nn(C3(CC#N)CCN(Cc4cccnc4)CC3)c3cc[nH]c(=O)c23)c1 [Example 8-19, 3-({1-[4-(cyanomethyl)-1-(pyridin-3-ylmethyl)piperidin-4-yl]-4-oxo-4,5-dihydro-1H-pyrazolo[4,3-c]pyridin-3-yl}amino)-N,N-dimethylbenzenesulfonamide]	1.19	1.98
Cc1cc(C)cc(Nc2nn(C3(CC#N)CCN(C(=O)OC(C)(C)C)CC3)c3cc[nH]c(=O)c23)c1 [Example 5-61, tert-butyl 4-(cyanomethyl)-4-(3-(3,5-dimethylphenylamino)-4-oxo-4,5-dihydropyrazolo[4,3-c]pyridin-1-yl)piperidine-1-carboxylate]	0.64	12.7
CC(c1c(F)cccc1F)N1CCC(CC#N)(n2nc(Nc3ccc(S(=O)(=O)N(C)C)cc3)c3c(=O)[nH]ccc32)CC1 (centres unmarked) [Example 8-17, 4-((1-(4-(cyanomethyl)-1-(1-(2,6-difluorophenyl)ethyl)piperidin-4-yl)-4-oxo-4,5-dihydro-1H-pyrazolo[4,3-c]pyridin-3-yl)amino)-N,N-dimethylbenzenesulfonamide]	1.4	3.26
Cc1cc(Nc2nn([C@]3(CC#N)CC[C@@H](C(=O)OC(C)(C)C)OC3)c3cc[nH]c(=O)c23)ccc1C(=O)N1CC(C)OC(C)C1 (single isomer, unassigned) [Example 20-12, (2S,5S)-tert-butyl 5-(cyanomethyl)-5-(3-((4-((2S,6S or 2R,6R)-2,6-dimethylmorpholine-4-carbonyl)-3-methylphenyl)amino)-4-oxo-4,5-dihydro-1H-pyrazolo[4,3-c]pyridin-1-yl)tetrahydro-2H-pyran-2-carboxylate]	0.25	0.45
CC(C)(C)OC(=O)N1CCC(CC#N)(n2nc(Nc3ccc4c(c3)CN(C3CCN(CC(F)(F)F)CC3)S4(=O)=O)c3c(=O)[nH]ccc32)CC1 [Example 21-15, tert-butyl-4-(cyanomethyl)-4-(3-((1,1-dioxido-2-(1-(2,2,2-trifluoroethyl)piperidin-4-yl)-2,3-dihydrobenzo[d]isothiazol-5-yl)amino)-4-oxo-4,5-dihydro-1H-pyrazolo[4,3-c]pyridin-1-yl)piperidine-1-carboxylate]	0.77	0.65
CS(=O)(=O)c1ccc(Nc2nn([C@@]3(CC#N)CCCOC3)c3cc[nH]c(=O)c23)cc1 [Example 5-30, (R)-2-(3-(3-((4-(methylsulfonyl)phenyl)amino)-4-oxo-4,5-dihydro-1H-pyrazolo[4,3-c]pyridin-1-yl)tetrahydro-2H-pyran-3-yl)acetonitrile]	12.6	58
CS(=O)(=O)c1ccc(Nc2nn(C3(CC#N)CCN(c4ccc(C#N)cn4)CC3)c3cc[nH]c(=O)c23)cc1 [Example 15-2, 6-(4-(cyanomethyl)-4-(3-((4(methylsulfonyl)phenyl)amino)-4-oxo-4,5-dihydro-1H-pyrazolo[4,3-c]pyridin-1-yl)piperidin-1-yl)nicotinonitrile]	0.04	0.04
Cc1cc(Nc2nn([C@]3(CC#N)CC[C@@H](C(=O)OC(C)(C)C)OC3)c3cc[nH]c(=O)c23)ccc1C(=O)N1CCCC1 [Example 20-7, (2S,5S)-tert-butyl 5-(cyanomethyl)-5-(3-((3-methyl-4-(pyrrolidine-1-carbonyl)phenyl)amino)-4-oxo-4,5-dihydro-1H-pyrazolo[4,3-c]pyridin-1-yl)tetrahydro-2H-pyran-2-carboxylate]	0.09	0.36
COC(=O)N1CCC(CC#N)(n2nc(Nc3ccc(C(C)(O)C(F)(F)F)cc3)c3c(=O)[nH]ccc32)CC1 (single isomer, unassigned) [Example 5-141, (R or S)-methyl 4-(cyanomethyl)-4-(4-oxo-3-((4-(1,1,1-trifluoro-2-hydroxypropan-2-yl)phenyl)amino)-4,5-dihydro-1H-pyrazolo[4,3-c]pyridin-1-yl)piperidine-1-carboxylate]	0.18	0.43
COC(=O)[C@@H]1CC[C@@](CC#N)(n2nc(Nc3ccc(S(C)(=O)=O)cc3)c3c(=O)[nH]ccc32)CO1 (single isomer, unassigned) [Example 5-33, (2S,5S or 2R,5R)-methyl 5-(cyanomethyl)-5-(3-((4-(methylsulfonyl)phenyl)amino)-4-oxo-4,5-dihydro-1H-pyrazolo[4,3-c]pyridin-1-yl)tetrahydro-2H-pyran-2-carboxylate]	0.03	0.23
COC(=O)N1CCC(CC#N)(n2nc(Nc3ccc(F)cc3)c3c(=O)[nH]ccc32)CC1 [Example 5-146, methyl 4-(cyanomethyl)-4-(3-((4-fluorophenyl)amino)-4-oxo-4,5-dihydro-1H-pyrazolo[4,3-c]pyridin-1-yl)piperidine-1-carboxylate]	0.3	2

Results, then the molecule that gave them:

IC50 [1] [nM]	IC50 [2] [nM]	SMILES
2.42	4.02	CC(C)(C)N[C@H](c1ccc(Nc2nn([C@@]3(CC#N)CCOC[C@H]3F)c3cc[nH]c(=O)c23)cc1)C(F)(F)F (single isomer, unassigned) [Example 5-267, 2-((3S,4S or 3R,4R)-4-(3-((4-((R or S)-1-(tert-butylamino)-2,2,2-trifluoroethyl)phenyl)amino)-4-oxo-4,5-dihydro-1H-pyrazolo[4,3-c]pyridin-1-yl)-3-fluorotetrahydro-2H-pyran-4-yl)acetonitrile]
0.2	0.32	CN(C)C(c1ccc(Nc2nn([C@]3(CC#N)CC[C@@H](C(=O)OC(C)(C)C)OC3)c3cc[nH]c(=O)c23)cc1)C(F)(F)F (single isomer, unassigned) [Example 5-214, (2S,5S)-tert-butyl 5-(cyanomethyl)-5-(3-((4-((R or S)-1-(dimethylamino)-2,2,2-trifluoroethyl)phenyl)amino)-4-oxo-4,5-dihydro-1H-pyrazolo[4,3-c]pyridin-1-yl)tetrahydro-2H-pyran-2-carboxylate]
3.53	43.5	CC(C)(C)OC(=O)N1CC(CC#N)(n2nc(Nc3ccnc(F)c3)c3c(=O)[nH]ccc32)C1 [Example 5-46, tert-butyl 3-(cyanomethyl)-3-{3-[(2-fluoropyridin-4-yl)amino]-4-oxo-4,5-dihydro-1H-pyrazolo[4,3-c]pyridin-1-yl}azetidine-1-carboxylate]
0.19	0.3	CC(C)(C)OC(=O)N1CCC(CC#N)(n2nc(Nc3ccc4c(c3)CN(CC(F)(F)F)S4(=O)=O)c3c(=O)[nH]ccc32)CC1 [Example 5-25, tert-butyl 4-(cyanomethyl)-4-(3-((1,1-dioxido-2-(2,2,2-trifluoroethyl)-2,3-dihydrobenzo[d]isothiazol-5-yl)amino)-4-oxo-4,5-dihydro-1H-pyrazolo[4,3-c]pyridin-1-yl)piperidine-1-carboxylate]
0.14	1.16	CC(C)(C)OC(=O)[C@@H]1CC[C@@](CC#N)(n2nc(Nc3ccc4nc(C#N)ccc4c3)c3c(=O)[nH]ccc32)CO1 [Example 5-216, (2S,5S)-tert-butyl 5-(cyanomethyl)-5-(3-((2-cyanoquinolin-6-yl)amino)-4-oxo-4,5-dihydro-1H-pyrazolo[4,3-c]pyridin-1-yl)tetrahydro-2H-pyran-2-carboxylate]
0.13	0.29	CN(C)S(=O)(=O)c1ccc(Nc2nn([C@]3(CC#N)CCCOC3)c3cc[nH]c(=O)c23)cc1 [Example 5-28, (S)-4-((1-(3-(cyanomethyl)tetrahydro-2H-pyran-3-yl)-4-oxo-4,5-dihydro-1H-pyrazolo[4,3-c]pyridin-3-yl)amino)-N,N-dimethyl benzenesulfonamide]
0.1	0.16	CN(C)S(=O)(=O)c1ccc(Nc2nn(C3(CC#N)CCN(C(=O)CC#N)CC3)c3cc[nH]c(=O)c23)cc1 [Example 9-25, 4-((1-(1-(2-cyanoacetyl)-4-(cyanomethyl)piperidin-4-yl)-4-oxo-4,5-dihydro-1H-pyrazolo[4,3-c]pyridin-3-yl)amino)-N,N-dimethylbenzenesulfonamide]
0.13	0.19	Cc1cc(Nc2nn([C@]3(CC#N)CC[C@@H](C(=O)OC(C)(C)C)OC3)c3cc[nH]c(=O)c23)ccc1C(=O)N1CCOCC1 [Example 20-5, (2S,5S)-tert-butyl 5-(cyanomethyl)-5-(3-((3-methyl-4-(morpholine-4-carbonyl)phenyl)amino)-4-oxo-4,5-dihydro-1H-pyrazolo[4,3-c]pyridin-1-yl)tetrahydro-2H-pyran-2-carboxylate]
0.5	1.74	N#CCC1(n2nc(Nc3ccc(C(N)C(F)(F)F)cc3)c3c(=O)[nH]ccc32)CCCC1 (single isomer, unassigned) [Example 5-89, (R or S)-2-(1-(3-((4-(1-amino-2,2,2-trifluoroethyl)phenyl)amino)-4-oxo-4,5-dihydro-1H-pyrazolo[4,3-c]pyridin-1-yl)cyclopentyl)acetonitrile]
0.22	0.15	CC(c1ccc(Nc2nn([C@]3(CC#N)CC[C@@H](C(=O)OC(C)(C)C)OC3)c3cc[nH]c(=O)c23)cc1)N1CCCC1 (single isomer, unassigned) [Example 5-212, (2S,5S)-tert-butyl 5-(cyanomethyl)-5-(4-oxo-3-((4-((S or R)-1-(pyrrolidin-1-yl)ethyl)phenyl)amino)-4,5-dihydro-1H-pyrazolo [4,3-c]pyridin-1-yl) tetrahydro-2H-pyran-2-carboxylate]
0.15	0.21	CC(C)(C)OC(=O)[C@@H]1CC[C@@](CC#N)(n2nc(Nc3ccc(C4(C(F)(F)F)CCNC4)cc3)c3c(=O)[nH]ccc32)CO1 (single isomer, unassigned) [Example 5-285, (2S,5S)-tert-butyl 5-(cyanomethyl)-5-(4-oxo-3-((4-((R or S)-3-(trifluoromethyl)pyrrolidin-3-yl)phenyl)amino)-4,5-dihydro-1H-pyrazolo[4,3-c]pyridin-1-yl)tetrahydro-2H-pyran-2-carboxylate]
